Experimental data as given in US4116963A, “3,3,3-Triarylalkyl-4-phenylalkyl-4-hydroxy piperidines and related compounds” (G.D. Searle & Co., priority 1977, dated 1978).

Columns and labels:
[1] = tested on: mice; test: Mouse Hot Plate Test; assay type: in vivo; details: for ED50: Mus musculus, printed "mg/kg k.g.", hot plate 55± 0.3° C., analgesic effect, read-out: Hot Plate (HP) ED50; for Relative Constipation Specificity HP/CT: ratio of Hot Plate ED50 to Cecal Test ED50
Experimental: The assessment of the analgesic effect of the instant compounds was conducted in the mouse hot plate and tail clip tests.
A mouse (adult male weighing 18-25 grams) is placed in a restraining cylinder on a hot plate with the temperature controlled at 55± 0.3° C. The reaction time of the mouse to lick a foot or jump is measured at 60, 40 and 20 minutes before and 30, 60, 90, and 120 minutes after administration of the test compound. The "normal" reaction time is measured as the median of the three pretreatment reaction times. A positive response consists of a reaction time greater than twice the normal time at any of the post treatment times. A dose of the test compound is considered active when 50 percent or more of the animals used show a positive response.

[2] = tested on: mice; test: Tail Clip Test; assay type: in vivo, mouse; details: for ED50: Mus musculus, po, i.g., analgesic effect, read-out: Tail Clip (TC) ED50; for Relative Constipation Specificity TC/CT: ratio of Tail Clip ED50 to Cecal Test ED50
[3] = tested on: mice; test: CECAL (Charcoal Meal Test); assay type: in vivo; details: Mus musculus, po; i.g., 1 hour prior to the charcoal meal; antidiarrheal effect; read-out: Cecal Test (CT) ED50
Experimental: The antidiarrheal effect of the compounds of the present invention are shown by the following test:
CECAL (Charcoal Meal Test)
Mice weighing 18-24 grams and previously fasted for 24 hours are each given orally 0.2 ml of a suspension containing 10% charcoal and 1% methylcellulose. The test compounds are administered intragastrically 1 hour prior to the charcoal meal. 3.5 Hours after administration of the meal the mice are sacrificed by cervical dislocation and the cecum is examined for the presence or absence of charcoal on an all or none basis. Each compound is tested at three dose levels (typically 30, 10, 3 mg/kg) in groups of 6 mice per dose level. Control groups of mice given vehicle only were run concurrently with each test group.

Q: `OC1(Cc2ccccc2)CCN(CCC(c2ccccc2)(c2ccccc2)c2ccccc2)CC1` [II, 1-(3,3,3-triphenylpropyl)-4-hydroxy-4-benzylpiperidine] was tested. Which ED50 [1] did it give?
A: Its ED50 is about 400 mg/kg.

Q: And the “Relative Constipation Specificity HP/CT” value [1]?
A: The value was 667.

Q: And the ED50 [2]?
A: The ED50 was about 400 mg/kg.

Q: What about the “Relative Constipation Specificity TC/CT” value [2] of the same molecule?
A: Its value is 667.

Q: And the ED50 [3]?
A: The ED50 was 0.6 mg/kg.

Q: What does the source list for `OC1(c2ccccc2)CCN(CCC(c2ccccc2)(c2ccccc2)c2ccccc2)CC1` [I, 1-(3,3,3-triphenylpropyl)-4-hydroxy-4-phenylpiperidine]?
A: ED50 [1]: ~3 mg/kg; Relative Constipation Specificity HP/CT [1]: 7.6; ED50 [2]: ~3 mg/kg; Relative Constipation Specificity TC/CT [2]: 7.6; ED50 [3]: 0.39 mg/kg
